One test addresses T1, rat MCH1 receptor (Rattus norvegicus, UniProt P97639).
T1 construct: expressed in transfected cells; host or cells: Human embryonic kidney Peak rapid 293 cells (Peakr293), transient, calcium phosphate; membranes
Briefly: Radioligand binding assay at cloned rat MCH1 receptor ([3H]Compound A displacement). As to conditions: KI, cloned rat MCH1, membranes of transfected Peakr293 cells, 0.08 nM [3H]Compound A, 25° C., 90 minutes. How it is done: For binding assays, pellets of transfected cells are suspended in ice-cold buffer (20 mM Tris.HCl, 5 mM EDTA, pH 7.4) and homogenized by sonication for 7 sec. The cell lysates are centrifuged at 200×g for 5 min at 4° C. The supernatants are then centrifuged at 40,000×g for 20 min at 4° C. The resulting pellets are washed once in the homogenization buffer and suspended in binding buffer (see methods for radioligand binding). Protein concentrations are determined by the method of Bradford (1976) using bovine serum albumin as the standard. Binding assays are usually performed immediately, however it is possible to prepare membranes in batch and store frozen in liquid nitrogen for future use.
Radioligand binding assays for the rat MCH1 receptor were carried out using plasmid pcDNA3.1-rMCH1-f (ATCC Patent Deposit Designation No. PTA-3505). Plasmid pcDNA3.1-rMCH1-f comprises the regulatory elements necessary for expression of DNA in a mammalian cell operatively linked to DNA encoding the rat MCH1 receptor so as to permit expression thereof. Plasmid pcDNA3.1-rMCH1-f was deposited on Jul. 5, 2001, with the American Type Culture Collection (ATCC), 12301 Parklawn Drive, Rockville, Md. 20852, U.S.A. under the provisions of the Budapest Treaty for the International Recognition of the Deposit of Microorganisms for the Purposes of Patent Procedure and was accorded ATCC Patent Deposit Designation No. PTA-3505.
Human embryonic kidney Peak rapid 293 cells (Peakr293 cells) were transiently transfected with DNA encoding the MCH1 receptor utilizing the calcium phosphate method and cell membranes were prepared as described above. Binding experiments with membranes from Peakr293 cells transfected with the rat MCH1 receptor were performed with 0.08 nM [^3H]Compound A (custom labeled by Amersham) (the synthesis of Compound A is described in detail below) using an incubation buffer consisting of 50 mM Tris pH 7.4, 10 mM MgCl2, 0.16 mM PMSF, 1 mM 1,10 phenantroline and 0.2% BSA. Binding was performed at 25° C. for 90 minutes. Incubations were terminated by rapid vacuum filtration over GF/C glass fiber filters, presoaked in 5% PEI using […] Tris pH 7.4 as wash buffer. In all experiments, nonspecific binding is defined using […] Compound A.
The compounds described above were assayed using cloned rat MCH1.
T1 sequence (P97639 whole entry): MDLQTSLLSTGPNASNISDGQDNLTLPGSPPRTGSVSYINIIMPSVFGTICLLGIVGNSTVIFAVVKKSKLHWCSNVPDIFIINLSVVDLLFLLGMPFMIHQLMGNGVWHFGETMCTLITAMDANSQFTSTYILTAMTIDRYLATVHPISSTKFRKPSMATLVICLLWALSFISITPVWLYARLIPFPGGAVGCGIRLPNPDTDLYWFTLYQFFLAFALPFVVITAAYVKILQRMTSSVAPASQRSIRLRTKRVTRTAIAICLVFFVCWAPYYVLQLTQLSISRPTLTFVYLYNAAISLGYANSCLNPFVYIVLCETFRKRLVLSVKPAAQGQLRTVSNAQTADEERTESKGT
Turning to `CC(C)(C(=O)NCCCN1CCC2(C=Cc3ccccc32)CC1)c1ccc(Cl)cc1` [Example 65, 2-(4-CHLOROPHENYL)-2-METHYL-N-(3-(SPIRO[INDENE-1,4′-PIPERIDINE]-10-YL)PROPYL)PROPANAMIDE], the affinity corresponds to a Ki of 78 nM.
As for `O=C(NCCCN1CCC2(C=Cc3ccccc32)CC1)C(c1ccc(F)cc1)c1ccc(F)cc1` [Example 67, 2,2-BIS(4-FLUOROPHENYL)-N-(3-(SPIRO[INDENE-1,4′-PIPERIDINE]-10-YL)PROPYL)ACETAMIDE], the Ki (as a rule, a dissociation constant, usually derived from enzyme kinetics or from competition with a known ligand) came to 2.4 nM.
Turning to `O=C(NCCCN1CCC2(CC1)OCc1ccccc12)C(c1ccccc1)c1ccccc1` [Example 76, 2,2-DIPHENYL-N-(3-(SPIRO[1,3-DIHYDROISOBENZOFURAN-1,4′-PIPERIDINE]-10-YL)PROPYL)ACETAMIDE], the affinity, expressed as Ki, was 20.6 nM.
On the same count and under the same terms, the value for `O=C(NCCCN1CCC2(CC1)OCc1ccccc12)C(c1ccccc1)(c1ccccc1)c1ccccc1` [Example 77, 2,2,2-TRIPHENYL-N-(3-(SPIRO[1,3-DIHYDROISOBENZOFURAN-1,4′-PIPERIDINE]-10-YL)PROPYL)ACETAMIDE] was 151 nM.

The test is the same for the next values; noted with them: cloned rat MCH1, membranes of transfected Peakr293 cells, 0.08 nM [3H]Compound A, 25° C., 90 minutes; read-out: KI.
As for `CC(C(=O)NCCCN1CCC2(C=Cc3ccccc32)CC1)c1ccc(Cl)cc1` (centres unmarked) [Example 66, 2-(4-CHLOROPHENYL)-N-(3-(SPIRO[INDENE-1,4′-PIPERIDINE]-10-YL)PROPYL)PROPANAMIDE], the Ki was found to be 140 nM.
In the case of `O=C(NCCCN1CCC2(C=Cc3ccccc32)CC1)C(c1ccc(Cl)cc1)c1ccc(Cl)cc1` [Example 68, 2,2-BIS(4-CHLOROPHENYL)-N-(3-(SPIRO[INDENE-1,4′-PIPERIDINE]-10-YL)PROPYL)ACETAMIDE], the Ki came out at 5.8 nM.
On to `O=C(NCCCN1CCC2(C=Cc3ccccc32)CC1)C1(c2ccc(Cl)cc2)CCCC1` [Example 69, [(4-CHLOROPHENYL)CYCLOPENTYL]-N-(3-(SPIRO[INDENE-1,4′-PIPERIDINE]-10-YL)PROPYL)CARBOXAMIDE], for which the Ki amounted to 104 nM.
Turning to `O=C(NCCCN1CCC2(C=Cc3ccccc32)CC1)C1(c2ccc(F)cc2)CCCC1` [Example 70, [(4-FLUOROPHENYL)CYCLOPENTYL]-N-(3-(SPIRO[INDENE-1,4′-PIPERIDINE]-10-YL)PROPYL)CARBOXAMIDE], the Ki amounted to 203 nM.
Still for that read-out and setting: the same measure for `O=C(NCCCN1CCC2(C=Cc3ccccc32)CC1)C1(c2ccc(Cl)cc2)CCCCC1` [Example 71, [(4-CHLOROPHENYL)CYCLOHEXYL]-N-(3-(SPIRO[INDENE-1,4′-PIPERIDINE]-10-YL)PROPYL)CARBOXAMIDE]: 71 nM; for `O=C(NCCCN1CCC2(C=Cc3ccccc32)CC1)C1(c2ccc(F)cc2)CCCCC1` [Example 72, [(4-FLUOROPHENYL)CYCLOHEXYL]-N-(3-(SPIRO[INDENE-1,4′-PIPERIDINE]-10-YL)PROPYL)CARBOXAMIDE]: 131 nM.
As to `O=C(NCCCN1CCC2(C=Cc3ccccc32)CC1)C1(c2ccc(Cl)cc2)CC1` [Example 73, [(4-CHLOROPHENYL)CYCLOPROPYL]-N-(3-(SPIRO[INDENE-1,4′-PIPERIDINE]-10-YL)PROPYL)CARBOXAMIDE], the Ki was found to be 239 nM.
`O=C(NCCCN1CCC2(C=Cc3ccccc32)CC1)C1(c2ccc(Cl)cc2)CCC1` [Example 74, [(4-CHLOROPHENYL)CYCLOBUTYL]-N-(3-(SPIRO[INDENE-1,4′-PIPERIDINE]-10-YL)PROPYL)CARBOXAMIDE]: the Ki is 185 nM.
For `Cc1ccc(C2(C(=O)NCCCN3CCC4(CC3)OCc3ccccc34)CCCC2)cc1` [Example 75, [(4-METHYL)PHENYL)CYCLOPENTYL]-N-(3-(SPIRO[1,3-DIHYDROISOBENZOFURAN-1,4′-PIPERIDINE]-10-YL)PROPYL)CARBOXAMIDE], the Ki was determined as 700 nM.
Same read-out and setting: the value for `Cc1ccc(C(C(=O)NCCCN2CCC3(CC2)OCc2ccccc23)c2ccc(C)cc2)cc1` [Example 78, 2,2-BIS(4-METHYL)PHENYL)-N-(3-(SPIRO[1,3-DIHYDROISOBENZOFURAN-1,4′-PIPERIDINE]-10-YL)PROPYL)ACETAMIDE] was 19.7 nM.

Source of the values: patent US7335665B2, “Spirocyclic piperidines as MCH1 antagonists and uses thereof” (H - Lundbeck A/S, priority 2003, dated 2008).
